Measurements taken from patent US11186554B2, “Non-fused tricyclic compounds” (VIVACE THERAPEUTICS, INC., priority 2017, dated 2021).
Like-named read-outs stand apart in the source and are kept apart here.

System: firefly luciferase activity
Experiment: Dual-Glo firefly/renilla luciferase reporter assay in cells
Type: cell-based
[1] = 24 hrs compound treatment, starting from 3 uM, 1:3 dilution, 10 points, read-out: Firefly Luciferase IC50
[2] = 24 h, read-out: Firefly Luciferase IC50 (μM)

SMILES	IC50 [1]	IC50 [2]
OCCn1nnc(-c2ccccc2Nc2cccc(C(F)(F)F)c2)n1 [Compound 3, 2-[5-[2-[3-(trifluoromethyl)anilino]phenyl]tetrazol-2-yl]ethanol]	1 to 5 µM	
COCCn1nnc(-c2ccccc2Nc2cccc(C(F)(F)F)c2)n1 [Compound 5, 2-[2-(2-methoxyethyl)tetrazol-5-yl]-N-[3-(trifluoromethyl)phenyl]aniline]	1 to 5 µM	
CCOC(=O)Cn1nnc(-c2ccccc2Nc2ccc(F)cc2)n1 [Compound 7, ethyl 2-[5-[2-(4-fluoroanilino)phenyl]tetrazol-2-yl]acetate]		0.1 to 1 µM
OCCn1nnc(-c2ccccc2Nc2ccc(F)cc2)n1 [Compound 8, 2-[5-[2-(4-fluoroanilino)phenyl]tetrazol-2-yl]ethanol]		0.1 to 1 µM
CCc1ccc(Nc2ccccc2-c2nnn(CCO)n2)cc1 [Compound 9, 2-[5-[2-(4-ethylanilino)phenyl]tetrazol-2-yl]ethanol]		0.1 to 1 µM
OCCn1nnc(-c2ccccc2Nc2cccc(F)c2)n1 [Compound 10, 2-(5-(2-((3-fluorophenyl)amino)phenyl)-2H-tetrazol-2-yl)ethanol]		0.1 to 1 µM
OCCn1nnc(-c2ccccc2Nc2ccc(OC(F)(F)F)cc2)n1 [Compound 11, 2-(5-(2-((4-(Trifluoromethoxy)phenyl)amino)phenyl)-2H-tetrazol-2-yl)ethanol]		< 0.1 µM
COc1ccc(Nc2ccccc2-c2nnn(CCO)n2)cc1 [Compound 12, 2-[5-[2-(4-methoxyanilino)phenyl]tetrazol-2-yl]ethanol]		0.1 to 1 µM
OCCCn1nnc(-c2ccccc2Nc2cccc(C(F)(F)F)c2)n1 [Compound 13, 3-[5-[2-[3-(trifluoromethyl)anilino]phenyl]tetrazol-2-yl]propan-1-ol]	0.1 to 1 µM	
CCc1cccc(Nc2ccccc2-c2nnn(CCO)n2)c1 [Compound 17, 2-[5-[2-(3-ethylanilino)phenyl]tetrazol-2-yl]ethanol]		0.1 to 1 µM
CCOC(=O)Cn1cc(-c2ccccc2Nc2cccc(C(F)(F)F)c2)nn1 [Compound 18, Ethyl 2-[4-[2-[3-(trifluoromethyl)anilino]phenyl]triazol-1-yl]acetate]		1 to 5 µM
OCCn1nnc(-c2ccccc2Nc2ccc(C(F)(F)F)cc2)n1 [Compound 23, 2-(5-(2-((4-(Trifluoromethyl)phenyl)amino)phenyl)-2H-tetrazol-2-yl)ethanol]	< 0.1 µM	
OCCn1nnc(-c2ccccc2Nc2cccc(OC(F)(F)F)c2)n1 [Compound 24, 2-(5-(2-((3-(Trifluoromethoxy)phenyl)amino)phenyl)-2H-tetrazol-2-yl)ethanol]	0.1 to 1 µM	
OCCn1nnc(-c2ccccc2Nc2ccc(F)c(F)c2)n1 [Compound 25, 2-[5-[2-(3,4-difluoroanilino)phenyl]tetrazol-2-yl]ethanol]	0.1 to 1 µM	
OCCn1nnc(-c2ccccc2Nc2ccc(F)cc2F)n1 [Compound 28, 2-(5-(2-((2,4-difluorophenyl)amino)phenyl)-2H-tetrazol-2-yl)ethan-1-ol]	0.1 to 1 µM	
OCCn1nnc(-c2ccccc2Nc2ccc(SC(F)F)cc2)n1 [Compound 31, 2-[5-[2-[4-(difluoromethylsulfanyl)anilino]phenyl]tetrazol-2-yl]ethanol]		0.1 to 1 µM
OCCn1nnc(-c2ccccc2Nc2ccccc2F)n1 [Compound 36, 2-(5-(2-((2-fluorophenyl)amino)phenyl)-2H-tetrazol-2-yl)ethanol]		1 to 5 µM
OCCn1cnc(-c2ccccc2Nc2cccc(C(F)(F)F)c2)n1 [Compound 39, 2-(3-(2-((3-(trifluoromethyl)phenyl)amino)phenyl)-1H-1,2,4-triazol-1-yl)ethanol]		1 to 5 µM
FC(F)(F)c1ccc(Nc2ccccc2-c2nnn(Cc3cccnc3)n2)cc1 [Compound 40, 2-[2-(3-pyridylmethyl)tetrazol-5-yl]-N-[4-(trifluoromethyl)phenyl]aniline]	0.1 to 1 µM	
FC(F)(F)c1ccc(Nc2ccccc2-c2nnn(Cc3ccncc3)n2)cc1 [Compound 41, 2-[2-(4-pyridylmethyl)tetrazol-5-yl]-N-[4-(trifluoromethyl)phenyl]aniline]	0.1 to 1 µM	
CNC(=O)Cn1nnc(-c2ccccc2Nc2ccc(C(F)(F)F)cc2)n1 [Compound 42, N-methyl-2-[5-[2-[4-(trifluoromethyl)anilino]phenyl]tetrazol-2-yl]acetamide]	< 0.1 µM	
CN(C)C(=O)Cn1nnc(-c2ccccc2Nc2ccc(C(F)(F)F)cc2)n1 [Compound 43, N,N-dimethyl-2-[5-[2-[4-(trifluoromethyl)anilino]phenyl]tetrazol-2-yl]acetamide]		0.1 to 1 µM
CCN(CC)C(=O)Cn1nnc(-c2ccccc2Nc2ccc(C(F)(F)F)cc2)n1 [Compound 44, N,N-diethyl-2-[5-[2-[4-(trifluoromethyl)anilino]phenyl]tetrazol-2-yl]acetamide]	1 to 5 µM	

SMILES	IC50 [1]	IC50 [2]
O=C(Cn1nnc(-c2ccccc2Nc2ccc(C(F)(F)F)cc2)n1)N1CCCC1 [Compound 45, 1-pyrrolidin-1-yl-2-[5-[2-[4-(trifluoromethyl)anilino]phenyl]tetrazol-2-yl]ethanone]	0.1 to 1 µM	
CNC(=O)Cn1nnc(-c2ccccc2Nc2ccc(OC(F)(F)F)cc2)n1 [Compound 46, N-methyl-2-[5-[2-[4-(trifluoromethoxy)anilino]phenyl]tetrazol-2-yl]acetamide]		0.1 to 1 µM
CN(C)CCn1nnc(-c2ccccc2Nc2ccc(C(F)(F)F)cc2)n1 [Compound 50, 2-[2-[2-(dimethylamino)ethyl]tetrazol-5-yl]-N-[4-(trifluoromethyl)phenyl]aniline]		0.1 to 1 µM
FC(F)(F)Oc1ccc(Nc2ccccc2-c2nnn(Cc3cccnc3)n2)cc1 [Compound 51, 2-[2-(3-pyridylmethyl)tetrazol-5-yl]-N-[4-(trifluoromethoxy)phenyl]aniline]	1 to 5 µM	
FC(F)(F)c1ccc(Nc2ccccc2-c2nnn(Cc3ccccn3)n2)cc1 [Compound 52, 2-[2-(2-pyridylmethyl)tetrazol-5-yl]-N-[4-(trifluoromethyl)phenyl]aniline]	0.1 to 1 µM	
FC(F)(F)Oc1ccc(Nc2ccccc2-c2nnn(Cc3ccncc3)n2)cc1 [Compound 53, 2-[2-(4-pyridylmethyl)tetrazol-5-yl]-N-[4-(trifluoromethoxy)phenyl]aniline]	1 to 5 µM	
FC(F)(F)Oc1ccc(Nc2ccccc2-c2nnn(Cc3ccccn3)n2)cc1 [Compound 54, 2-(2-(pyridin-2-ylmethyl)-2H-tetrazol-5-yl)-N-(4-(trifluoromethoxy)phenyl)aniline]	1 to 5 µM	
CCOC(=O)Cn1cc(-c2ccccc2Nc2cccc(C(F)(F)F)c2)cn1 [Compound 58, ethyl 2-(4-(2-((3-(trifluoromethyl)phenyl)amino)phenyl)-1H-pyrazol-1-yl)acetate]	0.1 to 1 µM	
CCOC(=O)Cn1cc(-c2ccccc2Nc2ccc(C(F)(F)F)cc2)cn1 [Compound 60, ethyl 2-(4-(2-((4-(trifluoromethyl)phenyl)amino)phenyl)-1H-pyrazol-1-yl)acetate]	< 0.1 µM	
O=C(O)Cn1cc(-c2ccccc2Nc2ccc(C(F)(F)F)cc2)cn1 [Compound 61, 2-(4-(2-((4-(trifluoromethyl)phenyl)amino)phenyl)-1H-pyrazol-1-yl)acetic Acid]	0.1 to 1 µM	
CN(C)CCCn1nnc(-c2ccccc2Nc2ccc(C(F)(F)F)cc2)n1 [Compound 62, 2-(2-(3-(dimethylamino)propyl)-2H-tetrazol-5-yl)-N-(4-(trifluoromethyl)phenyl) Aniline]	1 to 5 µM	
CN(C)CCCn1nnc(-c2ccccc2Nc2ccc(OC(F)(F)F)cc2)n1 [Compound 63, 2-(2-(3-(dimethylamino)propyl)-2H-tetrazol-5-yl)-N-(4-(trifluoromethoxy)phenyl) Aniline]	1 to 5 µM	
OCCn1nnc(-c2cccnc2Nc2ccc(C(F)(F)F)cc2)n1 [Compound 69, 2-(5-(2-((4-(trifluoromethyl)phenyl)amino)pyridin-3-yl)-2H-tetrazol-2-yl)ethanol]		0.1 to 1 µM
OCCn1nnc(-c2cccnc2Nc2ccc(OC(F)(F)F)cc2)n1 [Compound 75, 2-(5-(2-((4-(trifluoromethoxy)phenyl)amino)pyridin-3-yl)-2H-tetrazol-2-yl)ethanol]		0.1 to 1 µM
CCOC(=O)Cn1cc(-c2ccccc2Nc2ccc(C(F)(F)F)cc2)c(C)n1 [Compound 76, ethyl 2-[3-methyl-4-[2-[4-(trifluoromethyl)anilino]phenyl]pyrazol-1-yl]acetate]	0.1 to 1 µM	
CCOC(=O)Cn1ncc(-c2ccccc2Nc2ccc(C(F)(F)F)cc2)c1C [Compound 77, ethyl 2-[5-methyl-4-[2-[4-(trifluoromethyl)anilino]phenyl]pyrazol-1-yl]acetate]	< 0.1 µM	
OCCn1nnc(-c2cnccc2Nc2ccc(C(F)(F)F)cc2)n1 [Compound 78, 2-[5-[4-[4-(trifluoromethyl)anilino]-3-pyridyl]tetrazol-2-yl]ethanol]		1 to 5 µM
Cc1nn(CCO)cc1-c1ccccc1Nc1ccc(C(F)(F)F)cc1 [Compound 83, 2-[3-methyl-4-[2-[4-(trifluoromethyl)anilino]phenyl]pyrazol-1-yl]ethanol]	1 to 5 µM	
Cc1c(-c2ccccc2Nc2ccc(C(F)(F)F)cc2)cnn1CCO [Compound 84, 2-[5-methyl-4-[2-[4-(trifluoromethyl)anilino]phenyl]pyrazol-1-yl]ethanol]	1 to 5 µM	
CCOC(=O)Cn1ncc(-c2ccccc2Nc2cccc(C(F)(F)F)c2)c1C [Compound 90, ethyl 2-(5-methyl-4-(2-((3-(trifluoromethyl)phenyl)amino)phenyl)-1H-pyrazol-1-yl)acetate]	1 to 5 µM	
CC(=O)NCCn1nnc(-c2ccccc2Nc2ccc(C(F)(F)F)cc2)n1 [Compound 92, N-[2-[5-[2-[4-(trifluoromethyl)anilino]phenyl]tetrazol-2-yl]ethyl]acetamide]	0.1 to 1 µM	
CS(=O)(=O)NCCn1nnc(-c2ccccc2Nc2ccc(C(F)(F)F)cc2)n1 [Compound 93, N-[2-[5-[2-[4-(trifluoromethyl)anilino]phenyl]tetrazol-2-yl]ethyl]methane Sulfonamide]	1 to 5 µM	
OCCCn1nnc(-c2ccccc2Nc2ccc(C(F)(F)F)cc2)n1 [Compound 98, 3-(5-(2-((4-(trifluoromethyl)phenyl)amino)phenyl)-2H-tetrazol-2-yl)propan-1-01]	< 0.1 µM	
